This note sets out measurements from patent US20100144733A1, “Compounds, compositions and methods comprising heteroaromatic derivatives” (Institute for OneWorld Health, priority 2008, published 2010).

T1 sequence (P13569 whole entry): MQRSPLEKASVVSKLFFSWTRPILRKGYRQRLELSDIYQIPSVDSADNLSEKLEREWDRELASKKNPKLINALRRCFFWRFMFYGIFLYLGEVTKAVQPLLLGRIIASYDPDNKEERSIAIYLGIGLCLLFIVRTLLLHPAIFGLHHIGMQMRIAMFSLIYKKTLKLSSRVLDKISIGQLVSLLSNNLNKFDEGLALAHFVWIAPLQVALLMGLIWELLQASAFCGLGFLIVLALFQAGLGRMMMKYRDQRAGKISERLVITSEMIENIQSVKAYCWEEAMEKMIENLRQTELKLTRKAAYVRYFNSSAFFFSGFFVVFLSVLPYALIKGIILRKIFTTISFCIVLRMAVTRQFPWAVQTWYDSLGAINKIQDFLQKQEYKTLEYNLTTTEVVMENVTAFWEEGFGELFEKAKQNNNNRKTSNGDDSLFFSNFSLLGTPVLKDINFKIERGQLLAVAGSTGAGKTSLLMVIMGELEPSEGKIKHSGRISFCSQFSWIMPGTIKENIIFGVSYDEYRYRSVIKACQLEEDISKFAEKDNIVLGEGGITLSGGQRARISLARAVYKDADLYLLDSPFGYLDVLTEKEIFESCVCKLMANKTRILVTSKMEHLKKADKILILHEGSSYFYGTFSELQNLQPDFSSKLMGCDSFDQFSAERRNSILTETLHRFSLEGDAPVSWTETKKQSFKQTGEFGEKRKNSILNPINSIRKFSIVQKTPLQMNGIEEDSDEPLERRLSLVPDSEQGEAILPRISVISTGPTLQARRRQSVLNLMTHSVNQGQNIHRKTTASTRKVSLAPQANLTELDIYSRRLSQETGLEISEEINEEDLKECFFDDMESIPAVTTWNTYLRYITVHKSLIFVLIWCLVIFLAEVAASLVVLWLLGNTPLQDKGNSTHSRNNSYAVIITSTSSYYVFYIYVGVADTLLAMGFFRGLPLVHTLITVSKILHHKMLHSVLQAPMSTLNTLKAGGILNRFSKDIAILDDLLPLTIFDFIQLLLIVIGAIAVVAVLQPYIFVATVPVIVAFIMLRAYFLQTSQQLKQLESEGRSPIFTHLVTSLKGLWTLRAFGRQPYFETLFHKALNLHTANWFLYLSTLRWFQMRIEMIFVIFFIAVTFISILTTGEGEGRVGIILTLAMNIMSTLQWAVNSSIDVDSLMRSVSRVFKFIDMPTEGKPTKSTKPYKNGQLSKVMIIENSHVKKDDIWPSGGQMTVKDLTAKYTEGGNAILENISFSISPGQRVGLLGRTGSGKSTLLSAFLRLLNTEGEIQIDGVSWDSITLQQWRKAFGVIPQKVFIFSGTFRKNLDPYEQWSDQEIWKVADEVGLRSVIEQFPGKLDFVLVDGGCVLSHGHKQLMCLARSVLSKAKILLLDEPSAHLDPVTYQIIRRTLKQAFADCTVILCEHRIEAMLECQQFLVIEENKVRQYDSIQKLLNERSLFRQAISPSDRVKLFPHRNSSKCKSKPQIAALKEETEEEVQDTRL

The first experiment has as its target T1, CFTR (Homo sapiens, UniProt P13569).
T1 construct: endogenous in cells; host or cells: T84 human colonic cells (ECACC)
As to the kind of experiment: T84 assay (FLIPR membrane potential dye, forskolin/IBMX-stimulated CFTR channel activity). The experiment is classed as cell-based. Conditions: imidazole and triazole-containing compounds (Tables 13, 14, 14′), read-out: IC50 (μM) (T84 assay). As to the method:
(§1) For example, Human colonic T84 cells can be acquired from the European Collection of Cell Cultures (ECACC) and grown in standard culture conditions as described by the supplier. On the day before assay 25,000 T84 cells per well are plated into standard black walled, clear bottom 384-well assay plates in standard growth medium consisting of DMEM:F12 with 10% FBS and incubated overnight. On the day of the assay the plates are washed using a standard assay buffer (HBSS with 10 mM Hepes) and incubated for 15 minutes in serum free cell culture medium before the addition of a commercially available membrane potential sensitive fluorescent dye (FLIPRRed membrane potential dye, Molecular Devices Corporation). T84 cells are incubated with the FLIPRRed membrane potential dye for 45 minutes in the presence and absence of test compound before being transferred to a commercially available fluorescence imaging plate reader (FLIPR384, Molecular Devices Corporation). Fluorescence levels are monitored continuously every second for 150 seconds; after an initial 10 second baseline, CFTR channel activity is stimulated through the addition of 10 μM forskolin in the presence of 100 μM of the phosphodiesterase inhibitor iso-butyl-methylxanthine (IBMX). Addition of the forskolin leads to the activation of intracellular adenylyl cylase 1, elevating cAMP levels and results in the phosphorylation and opening of CFTR anion channels. CFTR channel opening causes chloride ion efflux and subsequent depolarization of the cells, which is measured by an increase in fluorescence. CFTR inihibitor compounds prevent cell depolarization and the associatred increase in fluorescence.
as §1, with “Human colonic” for “For example, Human colonic”, “T84 cells are acquired from” for “T84 cells can be acquired from”, “(ECACC) and are grown in” for “(ECACC) and grown in”, “10 μM Forskolin in the” for “10 μM forskolin in the”, “fluorescence. CFTR inhibitor compounds prevent” for “fluorescence. CFTR inihibitor compounds prevent”, “and the associated increase in” for “and the associatred increase in”
`O=C(NCc1cc(F)c(F)c(F)c1)c1ncn(-c2cc(Cl)c(O)c(Cl)c2)n1` [43i, 1-(3,5-dichloro-4-hydroxyphenyl)-N-(3,4,5-trifluorobenzyl)-1H-1,2,4-triazole-3-carboxamide]: the IC50 was found to be 13.3 µM.

As to `O=C(NCc1cc(Cl)ccc1F)c1ncn(-c2cc(Cl)c(O)c(Cl)c2)n1` [27i, N-(5-chloro-2-fluorobenzyl)-1-(3,5-dichloro-4-hydroxyphenyl)-1H-1,2,4-triazole-3-carboxamide], the IC50 was found to be 24.4 µM.

With `O=C(NCc1ccccc1C(F)(F)F)c1ncn(-c2cc(Cl)c(O)c(Cl)c2)n1` [35i, 1-(3,5-dichloro-4-hydroxyphenyl)-N-(2-(trifluoromethyl)benzyl)-1H-1,2,4-triazole-3-carboxamide], the IC50 was 23.8 µM.

On to `CN(Cc1cccc(C(F)(F)F)c1)C(=O)c1ncn(-c2cc(Cl)c(O)c(Cl)c2)n1` [6i, 1-(3,5-dichloro-4-hydroxyphenyl)-N-methyl-N-(3-(trifluoromethyl)benzyl)-1H-1,2,4-triazole-3-carboxamide], for which the IC50 was found to be 16.2 µM.

For the compound `O=C(NCc1ccccc1Cl)c1ncn(-c2cc(Cl)c(O)c(Cl)c2)n1` [30i, N-(2-chlorobenzyl)-1-(3,5-dichloro-4-hydroxyphenyl)-1H-1,2,4-triazole-3-carboxamide], the IC50 worked out at 27.8 µM.

Regarding `COCCOCCOCCOCCN(Cc1cccc(OC(F)(F)F)c1)C(=O)c1ncn(-c2cc(Cl)c(O)c(Cl)c2)n1` [115i, 1-(3,5-dichloro-4-hydroxyphenyl)-N-(2,5,8,11-tetraoxatridecan-13-yl)-N-(3-(trifluoromethoxy)benzyl)-1H-1,2,4-triazole-3-carboxamide], the IC50 was found to be 2.8 µM.

Regarding `COCCOCCOCCON(Cc1ccc(Oc2ccccc2)cc1)C(=O)c1ncn(-c2cc(Cl)c(O)c(Cl)c2)n1` [123i, 1-(3,5-dichloro-4-hydroxyphenyl)-N-(2-(2-(2-methoxyethoxy)ethoxy)ethoxy)-N-(4-phenoxybenzyl)-1H-1,2,4-triazole-3-carboxamide], the IC50 was found to be 8.44 µM.

As to `CN(C)c1cccc(CNC(=O)c2ncn(-c3cc(Cl)c(O)c(Cl)c3)n2)c1` [26i, 1-(3,5-dichloro-4-hydroxyphenyl)-N-(3-(dimethylamino)benzyl)-1H-1,2,4-triazole-3-carboxamide], the IC50 turned out to be 3.92 µM.

As to `O=C(NCc1ccc(-c2ccc(C(F)(F)F)cn2)cc1)c1ncn(-c2cc(Cl)c(O)c(Cl)c2)n1` [39i, 1-(3,5-dichloro-4-hydroxyphenyl)-N-(4-(5-(trifluoromethyl)pyridin-2-yl)benzyl)-1H-1,2,4-triazole-3-carboxamide], the IC50 came out at 2.51 µM.

Still in this experiment, the particulars now being: isoxazole-containing compounds (Table 10, 10′, 11, 11′), read-out: IC50.
Take `CN(Cc1ccc(C(F)(F)F)cc1)C(=O)c1cc(-c2cc(Cl)c(O)c(Cl)c2)on1` [7g, 5-(3,5-dichloro-4-hydroxyphenyl)-N-methyl-N-(4(trifluoromethyl)benzyl)isoxazole-3-carboxamide]: the IC50 was determined as 10.6 µM.

The experiment is the same for the next values; noted with them: oxadiazole-containing compounds (a series), average of at least 2 runs unless annotated n = 1, read-out: IC50.
As for `O=C(c1noc(-c2cc(Cl)c(O)c(Cl)c2)n1)N(CCNCc1ccccc1)Cc1ccccc1` [119a, N-benzyl-N-(2-(benzylamino)ethyl)-5-(3,5-dichloro-4-hydroxyphenyl)-1,2,4-oxadiazole-3-carboxamide], the IC50 was determined as 24.1 µM.

Turning to `O=C(NCc1ccc(Cl)c(Cl)c1)c1nc(-c2cc(Br)c(O)c(Br)c2)no1` [22a, 3-(3,5-dibromo-4-hydroxyphenyl)-N-(3,4-dichlorobenzyl)-1,2,4-oxadiazole-5-carboxamide], the IC50 stood at 11 µM.

For `O=C(NCc1ccc(OC(F)(F)F)cc1)c1nc(-c2cc(Br)c(O)c(Br)c2)no1` [29a, 3-(3,5-Dibromo-4-hydroxyphenyl)-N-(4-(trifluoromethoxy)benzyl)-1,2,4-oxadiazole-5-carboxamide], the IC50 was found to be 13.8 µM.

With `O=C(NCc1cc(C(F)(F)F)ccc1F)c1nc(-c2cc(Cl)c(O)c(Cl)c2)no1` [126a, 3-(3,5-dichloro-4-hydroxyphenyl)-N-(2-fluoro-5-(trifluoromethyl)benzyl)-1,2,4-oxadiazole-5-carboxamide], the IC50 worked out at 23.4 µM.

As to `O=C(NCc1cccc(F)c1)c1noc(-c2cc(Cl)c(O)c(Cl)c2)n1` [116a, 5-(3,5-dichloro-4-hydroxyphenyl)-N-(3-fluorobenzyl)-1,2,4-oxadiazole-3-carboxamide], the IC50 came out at 18 µM.

For `O=C(NCc1ccc(C(F)(F)F)cc1)c1nc(-c2cc(Br)c(O)c(Br)c2)no1` [37a, 3-(3,5-dibromo-4-hydroxyphenyl)-N-(4-(trifluoromethyl)benzyl)-1,2,4-oxadiazole-5-carboxamide], the IC50 was determined as 23 µM.

`O=C(NCc1ccc(F)c(Cl)c1)c1nc(-c2cc(Cl)c(O)c(Cl)c2)no1` [130a, N-(3-chloro-4-fluorobenzyl)-3-(3,5-dichloro-4-hydroxyphenyl)-1,2,4-oxadiazole-5-carboxamide]: the IC50 worked out at 9.44 µM.

`CN(Cc1ccc(Cl)cc1)C(=O)c1noc(-c2cc(Cl)c(O)c(Cl)c2)n1` [84a, N-(4-chlorobenzyl)-5-(3,5-dichloro-4-hydroxyphenyl)-N-methyl-1,2,4-oxadiazole-3-carboxamide]: the IC50 came out at 4.03 µM.

On to `O=C(c1nc(-c2cc(Br)c(O)c(Br)c2)no1)N1CCC(C(O)(c2ccccc2)c2ccccc2)CC1` [203a, (3-(3,5-dibromo-4-hydroxyphenyl)-1,2,4-oxadiazol-5-yl)(4-(hydroxydiphenylmethyl)piperidin-1-yl)methanone], for which the IC50 was determined as 25.9 µM.

Regarding `O=C(NCc1ccc(F)cc1F)c1noc(-c2cc(Cl)c(O)c(Cl)c2)n1` [114a, 5-(3,5-dichloro-4-hydroxyphenyl)-N-(2,4-difluorobenzyl)-1,2,4-oxadiazole-3-carboxamide], the IC50 is 7.9 µM.

`CC(C)Oc1ccc(Oc2ccc(CNC(=O)c3nc(-c4cc(Cl)c(O)c(Cl)c4)no3)cc2)cc1Cl` [180a, N-(4-(3-chloro-4-isopropoxyphenoxy)benzyl)-3-(3,5-dichloro-4-hydroxyphenyl)-1,2,4-oxadiazole-5-carboxamide]: the IC50 turned out to be 10.3 µM.

For the compound `O=C(NCc1cc(F)ccc1F)c1noc(-c2cc(Cl)c(O)c(Cl)c2)n1` [113a, 5-(3,5-dichloro-4-hydroxyphenyl)-N-(2,5-difluorobenzyl)-1,2,4-oxadiazole-3-carboxamide], the IC50 is 15.7 µM.

In the case of `O=C(NCc1cc(C(F)(F)F)cc(C(F)(F)F)c1)c1nc(-c2cc(Br)c(O)c(Br)c2)no1` [20a, N-(3,5-bis(trifluoromethyl)benzyl)-3-(3,5-dibromo-4-hydroxyphenyl)-1,2,4-oxadiazole-5-carboxamide], the IC50 was determined as 10.5 µM.

`CC(C)(C)C(=O)CN(Cc1cccc(OC(F)(F)F)c1)C(=O)c1nc(-c2cc(Cl)c(O)c(Cl)c2)no1` [164a, 3-(3,5-dichloro-4-hydroxyphenyl)-N-(3,3-dimethyl-2-oxobutyl)-N-(3-(trifluoromethoxy)benzyl)-1,2,4-oxadiazole-5-carboxamide]: the IC50 was found to be 12.9 µM.

In the case of `COCCOCCN(Cc1cccc(C(F)(F)F)c1)C(=O)c1nc(-c2cc(Cl)c(O)c(Cl)c2)no1` [111a, 3-(3,5-dichloro-4-hydroxyphenyl)-N-(2-(2-methoxyethoxy)ethyl)-N-(3-(trifluoromethyl)benzyl)-1,2,4-oxadiazole-5-carboxamide], the IC50 was 6.14 µM.

The experiment is the same for the next values; noted with them: thiadiazole-containing compounds (Table 12), read-out: IC50.
As to `Oc1c(Cl)cc(-c2nnc(CN3c4ccccc4Sc4ccccc43)s2)cc1Cl` [3h, 4-(5-((10H-Phenothiazin-10-yl)methyl)-1,3,4-thiadiazol-2-yl)-2,6-dichlorophenol], the IC50 worked out at 6.57 µM.
